Laboratory results from paper PMC10028261, “Structural and ligand binding analysis of the pet allergens Can f 1 and Fel d 7” (Frontiers in Allergy, 2023).

Tests used:
Assay type in all cases: binding
Fel d 7 [1] = biological target: T1, Fel d 7 (Felis catus, UniProt E5D2Z5); assay: ANS displacement assay; conditions: 2 uM ANS, 0.2 mg/ml protein, RT, 1 h; fatty acid 10 uM (Methods) or 1 uM (Figure 4 legend)
T1 construct: wild-type, signal peptide absent, aa 27-170 for the crystal construct; GST tag cut with TEV; E. coli BL21(DE3)

Can f 1 [2] = biological target: T2, Can f 1 (Canis lupus, UniProt O18873); assay: ANS displacement assay; conditions: 2 uM ANS, 0.2 mg/ml protein, RT, 1 h; fatty acid 10 uM (Methods) or 1 uM (Figure 4 legend)
T2 construct: wild-type (C118S gene reverted to Cys118), signal peptide absent, borders aa 27-171 for the C118S crystal construct; 6His-GST tag cut with TEV; E. coli BL21(DE3)

Can f 1 [3] = biological target: T2, Can f 1; assay: […]-methyl HSQC NMR stoichiometry; conditions: labelled compound (methyl-13C-oleate); annealed at 80°C, excess lipid removed, PBS; cholate extraction
Fel d 7 [4] = biological target: T1, Fel d 7; assay: […]-methyl HSQC NMR stoichiometry; conditions: labelled compound (methyl-13C-oleate); annealed at 80°C, excess lipid removed, PBS; cholate extraction

T2 sequence (O18873 27-171): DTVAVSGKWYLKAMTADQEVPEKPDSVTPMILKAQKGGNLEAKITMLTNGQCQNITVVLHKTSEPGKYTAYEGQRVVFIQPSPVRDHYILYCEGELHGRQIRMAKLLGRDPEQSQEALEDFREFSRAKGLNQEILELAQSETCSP
T1 sequence (E5D2Z5 27-170): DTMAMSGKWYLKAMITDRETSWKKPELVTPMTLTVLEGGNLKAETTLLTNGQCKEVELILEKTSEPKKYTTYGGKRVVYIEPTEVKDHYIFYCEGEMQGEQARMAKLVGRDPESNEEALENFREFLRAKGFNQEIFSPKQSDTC

% fluorescence reduction (Fel d 7 [1]) [%]	% fluorescence reduction (Can f 1 [2]) [%]	stoichiometry (oleate:protein) (Can f 1 [3])	stoichiometry (oleate:protein) (Fel d 7 [4])	Compound
> 50	> 50			CC/C=C\C/C=C\C/C=C\CCCCCCCC(=O)N[C@@H](Cc1ccc(O)cc1)C(=O)O [A2, N-(α-Linolenoyl) tyrosine]
> 50	> 50			CCCCCCCC/C=C\CCCCCCCC(=O)N[C@@H](CO)C(=O)O [A4, N-Oleoyl-L-serine]
> 50	> 50			CCCCC/C=C\C/C=C\CCCCCCCC(=O)NCC(=O)O [D10, Linoleoyl glycine]
		2:1	2:1	CCCCCCCC/C=C\CCCCCCCC(=O)O [oleic acid]
